These results are taken from patent US8546406B2, “Heterocyclic compounds as metap-2 inhibitors” (Merck Patent GmbH, priority 2009, dated 2013).

Bounds are passed on as bounds.

What is called IC50 is the point on the concentration scale where inhibition reaches its midpoint. One may read the melting point as the temperature of the solid-liquid transition.

Chain of MetAP-2 (P50579 whole entry, species assumed): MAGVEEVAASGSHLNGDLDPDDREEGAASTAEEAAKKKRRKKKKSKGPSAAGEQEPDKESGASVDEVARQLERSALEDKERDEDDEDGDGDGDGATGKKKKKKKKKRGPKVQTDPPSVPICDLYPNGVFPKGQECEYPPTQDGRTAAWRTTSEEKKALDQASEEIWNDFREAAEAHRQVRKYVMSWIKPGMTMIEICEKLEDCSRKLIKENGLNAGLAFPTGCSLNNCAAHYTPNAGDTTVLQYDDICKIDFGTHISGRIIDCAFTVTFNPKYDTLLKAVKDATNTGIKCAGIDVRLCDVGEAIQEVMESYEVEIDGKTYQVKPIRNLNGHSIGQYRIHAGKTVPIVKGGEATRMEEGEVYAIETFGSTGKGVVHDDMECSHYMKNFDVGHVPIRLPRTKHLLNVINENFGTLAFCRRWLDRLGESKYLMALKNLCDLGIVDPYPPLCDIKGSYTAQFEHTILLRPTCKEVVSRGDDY

One data set has as its target MetAP-2 (Homo sapiens, UniProt P50579). As to the kind of experiment: MetAP-2 activity measurement (coupled enzymatic reactions, substrate Met-Arg-Ser, photometric at 450 nm). Particulars: Inhibition of MetAP-2; read-out: IC50 enzyme. Type of data set: biochemical. The procedure:
The MetAP-2 activity is determined by coupling enzymatic reactions. The tripeptide Met-Arg-Ser (MAS) is employed as substrate. The methionine liberated is firstly converted into Metox and H2O2 by L-aminooxidase (AAO). In the second step, the peroxidase (POD) with the aid of the H2O2 catalyses the oxidation of the leukodye dianisidine to dianisidineox, the increase of which is detected photometrically at 450 nm.
MetAP-2 activity can be recorded continuously as kinetics. The reaction scheme illustrates that one mol of dianisidineox is formed per mol of methionene. The MetAP-2 enzyme activity can therefore be calculated directly as Δ absorption per time unit. Qualification of the MetAP-2 activity (mol of Met/time unit) is possible with the aid of the dianisidineox extinction coefficient. The change in extinction per time unit is depicted graphically and a slope calculation is carried out in the visually linear region of the reaction.
Consider `c1cnn(-c2ccnc3ncnn23)c1` [Compound A2, 7-pyrazol-1-yl-[1,2,4]triazolo[1,5-a]pyrimidine], for which the IC50 was more than 10 µM.
The same measure, in the same setting: with `c1cc(OC[C@H]2CCCN2c2ccnc3ncnn23)c2cccnc2c1` [Compound A5, 5-((R)-1-[1,2,4]triazolo[1,5-a]pyrimidin-7-ylpyrrolidin-2-ylmethoxy)quinoline] the figure was 0.01 to 1 µM; with `NCCCOC(=O)N1CCc2cccc(OC[C@H]3CCCN3c3ccnc4ncnn34)c2C1` [Compound A75], 0.01 to 1 µM.
As for `NCCCN1CCc2cccc(OC[C@H]3CCCN3c3ccnc4ncnn34)c2C1` [Compound A76], the IC50 fell in the range of 0.01 to 1 µM.
For `O=C1c2ccccc2C(=O)N1C[C@H]1CCCN1c1ccnc2ncnn12` [Compound A78], the IC50 was in the range of 1 to 10 µM.
The same measure, in the same setting: to `N#Cc1cccc(C(=O)OC[C@H]2CCCN2c2ccnc3ncnn23)c1` [Compound A79, (R)-1-[1,2,4]Triazolo[1,5-a]pyrimidin-7-yl-pyrrolidin-2-ylmethyl 3-cyanobenzoate] belongs 0.01 to 1 µM; to `Nc1nc2nccc(N3CCC[C@@H]3COc3cccc4ccccc34)n2n1` [Compound A80], 1 to 10 µM.
On the same count and under the same terms, to `COC(=O)c1ccc2[nH]c(CC3CCCN3c3ccnc4ncnn34)cc2c1` (stereo not shown) [Compound A81] belongs 0.01 to 1 µM; to `O=C(OC[C@H]1CCCN1c1ccnc2ncnn12)c1cccc(OC(F)(F)F)c1` [Compound A82, (R)-1-[1,2,4]Triazolo[1,5-a]pyrimidin-7-yl-pyrrolidin-2-ylmethyl 3-trifluoromethoxy-benzoate], 0.01 to 1 µM; to `OC[C@H]1CCCN1c1ccnc2ncnn12` [Compound A83], 0.01 to 1 µM.
As to `O=S(=O)(NC[C@H]1CCCN1c1ccnc2ncnn12)c1ccc(F)cc1` [Compound A84], the IC50 was 1 to 10 µM.

Test system in another data set: not given
Assay: not given
Conditions: not given
Take `c1cnn(-c2ccnc3ncnn23)c1` [Compound A2, 7-pyrazol-1-yl-[1,2,4]triazolo[1,5-a]pyrimidine]: the melting point was in the range of 191 to 193 °C.
Still for that read-out and setting: with `c1cc(OC[C@H]2CCCN2c2ccnc3ncnn23)c2cccnc2c1` [Compound A5, 5-((R)-1-[1,2,4]triazolo[1,5-a]pyrimidin-7-ylpyrrolidin-2-ylmethoxy)quinoline] the figure was 93 to 95 °C.
